Measurements reported in article PMC7671598, “Differences in the efficiency of 3-deazathiamine and oxythiamine pyrophosphates as inhibitors of pyruvate dehydrogenase complex and growth of HeLa cells in vitro” (Journal of Enzyme Inhibition and Medicinal Chemistry, 2020).

Molecular target: T1, pyruvate dehydrogenase complex (PDHC)
T1 construct: gene PDHA1; native mitochondrial complex isolated from porcine heart; with PDHB (E1 beta) and the other subunits of the complex
Assay: spectrophotometric PDHC kinetics at […] nm, Lineweaver-Burk, Ki from the shift of Km for TPP
Type: biochemical, Sus scrofa
Conditions: read-out: Kinetic parameters / Ki

SMILES	Ki
Cc1ncc(Cc2csc(CCOP(=O)(O)OP(=O)(O)O)c2C)c(N)n1 [compound 15, 3-deazathiamine pyrophosphate]	0.0026 ± 0.0009 µM
Cc1ncc(C[n+]2csc(CCOP(=O)(O)OP(=O)(O)O)c2C)c(O)n1 [compound 18, oxythiamine pyrophosphate]	0.025 ± 0.015 µM
